pIC50: −log10 of the molar value. Like-named read-outs stand apart in the source and are kept apart here.
Key:
BCL2 = BCL2 (Homo sapiens (Human), UniProt P10415); assay: Molecular level activity test of anti-apoptotic protein BCL2 (HTRF, binding to Bim peptide)
Summary of the method: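 HTRF binding of His-tagged recombinant BCL2 to biotin-tagged Bim peptide, compound in 2% DMSO. After 1 h reaction, anti-His and streptavidin-XL665 detection reagents were added and incubated 4 h at room temperature before reading.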

BCL2 (G101V) = BCL2 (G101V) (Homo sapiens (Human), UniProt P10415, G101V); assay: Molecular level activity test of anti-apoptotic protein BCL2 (G101V) (HTRF, binding to Bim peptide); details: inhibition of BCL2 (G101V) binding to Bim peptide, read-out: BCL-2 (G101V)
Procedure: (§1) The detection of the binding ability between anti-apoptotic protein BCL2 (G101V) and pro-apoptotic protein Bim was performed using Homogeneous Time-Resolved Fluorescence technology. The reaction of this method occurred in a white shallow 384-well plate, with a total reaction volume of 10 μL. Specifically, it included 2 μL of the compound to be tested (2% DMSO), 4 μL His-tagged recombinant protein, and 4 μL Biotin-tagged BIM protein peptide. After 1 hour of reaction, 5 L of each Anti-His and streptavidin-tagged XL665 antibody diluents diluted with a detection buffer were added. After incubating at room temperature for 4 hours, the values were read using the Envision multifunctional microplate reader to detect the effect of the compound to be tested on the binding ability of BCL2 (G101V) to BIM protein peptides.

BCL2 (D103Y) = BCL2 (D103Y) (Homo sapiens (Human), UniProt P10415, D103Y); assay: Molecular level activity test of BCL2 (D103Y) (HTRF, binding to Bim peptide); details: read-out: BCL-2 (D103Y) (nM) (inhibitory activity, IC50)
Procedure: as §1, with “BCL2 (D103Y)” for “BCL2 (G101V)”, “5 μL” for “5 L”

RS4; 11 cells = assay: Tumor proliferation inhibitory activity test (MTS) on RS4; 11; assay type: cell-based; details: Homo sapiens, RS4-11, 72 h, 3 days incubation
Procedure: The cell proliferation inhibitory ability of the compounds on RS4; 11 was tested using the MTS method. MTS is a tetrazolium blue salt compound that can be reduced by various dehydrogenases in live cell mitochondria to their respective colored methylzan products. Its color depth is highly correlated with the number of live cells in certain sensitive cell lines within a certain range. RS4; 11, RS4; 11 (BCL-2-G101V) and MOLT-4 tumor cells were cultivated separately and collected, 180 μL of cell suspension was added to each well in a 96-well cell plate, 20 μL of DMSO with a final concentration of 0.2% was added to the control cell wells, 20 μL of gradient diluted compounds were added to cell wells, and the treated cells were incubated in a 5% CO2 incubator at 37° C. for 3 days. After the incubation was completed, the reaction solution was prepared according to the MTS reagent kit, 20 μL was added per well and incubated in a 5% CO2 incubator at 37° C. for 3-4 hours. The absorbance value at 490 nm was read using an enzyme-linked immunosorbent assay (ELISA) plate, and the absorbance value at 690 nm was used as the background value, with OD490 nm-OD690 nm as the final raw data. The formula for calculating the inhibition ratio of compounds was as follows: inhibition ratio=(ODDMSO−ODCompound)/(ODDMSO−ODblank)×100%.

BCL-XL = BCL-XL (Homo sapiens (Human), UniProt Q07817); assay: BCL-XL enzyme molecular level activity test (HTRF, binding to BIM peptide); details: binding of BCL-XL to BIM peptide, values in nM, read-out: BCL-XL inhibitory activity (IC50)
Sequence of BCL-XL (Q07817 whole entry): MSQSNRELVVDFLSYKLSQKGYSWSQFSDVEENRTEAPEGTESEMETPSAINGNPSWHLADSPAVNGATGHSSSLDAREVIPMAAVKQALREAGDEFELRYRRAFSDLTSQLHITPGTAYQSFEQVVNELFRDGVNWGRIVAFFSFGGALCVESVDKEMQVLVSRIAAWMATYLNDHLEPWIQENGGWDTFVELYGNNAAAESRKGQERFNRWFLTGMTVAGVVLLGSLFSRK
Summary of the method: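 HTRF binding assay: His-tagged recombinant BCL-XL with biotin-BIM peptide and compound (2% DMSO), 1 h. Anti-His and streptavidin-XL665 detection reagents added, 4 h at room temperature. Excitation 320 nm; 665/615 nm ratio reflects binding, with no-protein background and no-compound full-binding controls.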

[1] = HTRF, binding of BCL2 to Bim peptide, read-out: BCL2 nM (inhibitory activity, IC50)

Row | pIC50 (BCL2; [1]) | pIC50 (BCL2 (G101V)) | IC50 (BCL2 (D103Y)) [nM] | pIC50 (RS4; 11 cells) | IC50 (BCL-XL) [nM] | pIC50 (BCL2) | Structure (SMILES)
1 | > 8.00 | > 8.00 | < 10 | > 9.30 | > 500 | – | COc1ccc(CN2CCN(C3CC4(CCN(c5ccc(C(=O)NS(=O)(=O)c6cc([N+](=O)[O-])c(NCC7CCOCC7)c7[nH]cnc67)c(Oc6cnc7[nH]ccc7c6)c5)CC4)C3)[C@H](c3ccccc3C(C)C)C2)cc1 [compound 260]
2 | > 8.00 | > 8.00 | < 10 | 9.00 to 9.30 | > 500 | – | CC(C)c1ccccc1[C@@H]1CN(Cc2ccc(CN(C)C)cc2)CCN1C1CC2(CCN(c3cc(Oc4cnc5[nH]ccc5c4)c(C(=O)NS(=O)(=O)c4ccc(NCC5(F)CCOCC5)c([N+](=O)[O-])c4)cc3F)CC2)C1 [compound 244, (R)-2-((1H-pyrrolo[2,3-b]pyrid-5-yl)oxy)-4-(2-(4-(4-((dimethylamino)methyl)benzyl)-2-(2-isopropylphenyl)piperazin-1-yl)-7-azaspiro[3.5]non-7-yl)-5-fluoro-N-((4-(((4-fluorotetrahydro-2H-pyran-4-yl)methyl)amino)-3-nitrophenyl)sulfonyl)benzamide]
3 | > 8.00 | > 8.00 | < 10 | 9.00 to 9.30 | > 500 | – | COc1ccc(CN2CCN(C3CC4(CCN(c5cc(Oc6cnc7[nH]cc(F)c7c6)c(C(=O)NS(=O)(=O)c6ccc(NCC7CCOCC7)c([N+](=O)[O-])c6)cc5F)CC4)C3)[C@H](c3ccccc3C(C)C)C2)cc1 [compound 240, (R)-5-fluoro-2-((3-fluoro-1H-pyrrolo[2,3-b]pyrid-5-yl)oxy)-4-(2-(2-(2-isopropylphenyl)-4-(4-methoxybenzyl)piperazin-1-yl)-7-azaspiro[3.5]non-7-yl)-N-((3-nitro-4-(((tetrahydro-2H-pyran-4-yl)methyl)amino)phenyl)sulfonyl)benzamide]
4 | > 8.00 | > 8.00 | < 10 | 9.00 to 9.30 | > 500 | – | COc1ccc(CN2CCN(C3CC4(CCN(c5cc(Oc6cnc7[nH]ccc7c6)c(C(=O)NS(=O)(=O)c6ccc(NC[C@H]7CC[C@](C)(O)CC7)c([N+](=O)[O-])c6)cc5F)CC4)C3)[C@H](c3ccccc3C(C)C)C2)cc1OC [compound 237, 2-((1H-pyrrolo[2,3-b]pyrid-5-yl)oxy)-4-(2-((R)-4-(3,4-dimethoxybenzyl)-2-(2-isopropylphenyl)piperazin-1-yl)-7-azaspiro[3.5]non-7-yl)-5-fluoro-N-((4-((((1r, 4r)-4-hydroxy-4-methylcyclohexyl)methyl)amino)-3-nitrophenyl)sulfonyl)benzamide]
5 | – | > 8.00 | < 10 | 9.00 to 9.30 | > 500 | > 8.00 | COc1ccc(CN2CCN(C3CC4(CCN(c5cc(Oc6cnc7[nH]cc(F)c7c6)c(C(=O)NS(=O)(=O)c6ccc(NCC7(F)CCOCC7)c([N+](=O)[O-])c6)cc5F)CC4)C3)[C@H](c3ccccc3C(C)C)C2)cc1OC [compound 253, (R)-4-(2-(4-(3,4-dimethoxybenzyl)-2-(2-isopropylphenyl)piperazin-1-yl)-7-azaspiro[3.5]non-7-yl)-5-fluoro-2-((3-fluoro-1H-pyrrolo[2,3-b]pyrid-5-yl)oxy)-N-((4-(((4-fluorotetrahydro-2H-pyran-4-yl)methyl)amino)-3-nitrophenyl)sulfonyl)benzamide]
6 | > 8.00 | > 8.00 | < 10 | 9.00 to 9.30 | > 500 | – | CC(C)c1ccccc1[C@@H]1CN(Cc2ccc(CN3CCCC3)cc2)CCN1C1CC2(CCN(c3cc(Oc4cnc5[nH]ccc5c4)c(C(=O)NS(=O)(=O)c4ccc(NCC5(F)CCOCC5)c([N+](=O)[O-])c4)cc3F)CC2)C1 [compound 245, (R)-2-((1H-pyrrolo[2,3-b]pyrid-5-yl)oxy)-5-fluoro-N-((4-(((4-fluorotetrahydro-2H-pyran-4-yl)methyl)amino)-3-nitrophenyl)sulfonyl)-4-(2-(2-(2-isopropylphenyl)-4-(4-(pyrrolidin-1-ylmethyl)benzyl)piperazin-1-yl)-7-azaspiro[3.5]non-7-yl)benzamide]
7 | > 8.00 | > 8.00 | < 10 | 9.00 to 9.30 | > 500 | – | COc1ccc(CN2CCN(C3CC4(CCN(c5cc(Oc6cnc7[nH]ccc7c6)c(C(=O)NS(=O)(=O)c6ccc(NC[C@H]7CC[C@](C)(O)CC7)c([N+](=O)[O-])c6)cc5F)CC4)C3)[C@H](c3ccccc3C(C)C)C2)cn1 [compound 236, 2-((1H-pyrrolo[2,3-b]pyrid-5-yl)oxy)-5-fluoro-N-((4-((((1r, 4r)-4-hydroxy-4-methylcyclohexyl)methyl)amino)-3-nitrophenyl)sulfonyl)-4-(2-((R)-2-(2-isopropylphenyl)-4-((6-methoxypyrid-3-yl)methyl)piperazin-1-yl)-7-azaspiro[3.5]non-7-yl)benzamide]
8 | > 8.00 | > 8.00 | < 10 | 9.00 to 9.30 | > 500 | – | CNCc1ccc(CN2CCN(C3CC4(CCN(c5cc(Oc6cnc7[nH]ccc7c6)c(C(=O)NS(=O)(=O)c6ccc(NCC7(F)CCOCC7)c([N+](=O)[O-])c6)cc5F)CC4)C3)[C@H](c3ccccc3C(C)C)C2)cc1 [compound 243, (R)-2-((1H-pyrrolo[2,3-b]pyrid-5-yl)oxy)-5-fluoro-N-((4-(((4-fluorotetrahydro-2H-pyran-4-yl)methyl)amino)-3-nitrophenyl)sulfonyl)-4-(2-(2-(2-isopropylphenyl)-4-(4-((methylamino)methyl)benzyl)piperazin-1-yl)-7-azaspiro[3.5]non-7-yl)benzamide]
9 | > 8.00 | > 8.00 | < 10 | 9.00 to 9.30 | > 500 | – | COc1ccc(CN2CCN(C3CC4(CCN(c5cc(Oc6cnc7[nH]ccc7c6)c(C(=O)NS(=O)(=O)c6ccc(NCC7(F)CCOCC7)c([N+](=O)[O-])c6)cc5F)CC4)C3)[C@H](c3ccccc3C(C)C)C2)cc1CN1CCCC1 [compound 251, (R)-2-((1H-pyrrolo[2,3-b]pyrid-5-yl)oxy)-5-fluoro-N-((4-(((4-fluorotetrahydro-2H-pyran-4-yl)methyl)amino)-3-nitrophenyl)sulfonyl)-4-(2-(2-(2-isopropylphenyl)-4-(4-methoxy-3-(pyrrolidin-1-ylmethyl)benzyl)piperazin-1-yl)-7-azaspiro[3.5]non-7-yl)benzamide]
10 | > 8.00 | > 8.00 | < 10 | 9.00 to 9.30 | > 500 | – | CNCc1ccc(CN2CCN(C3CC4(CCN(c5cc(Oc6cnc7[nH]ccc7c6)c(C(=O)NS(=O)(=O)c6ccc(NCC7(F)CCOCC7)c([N+](=O)[O-])c6)cc5F)CC4)C3)[C@H](c3ccccc3C(C)C)C2)cc1OC [compound 246, (R)-2-((1H-pyrrolo[2,3-b]pyrid-5-yl)oxy)-5-fluoro-N-((4-(((4-fluorotetrahydro-2H-pyran-4-yl)methyl)amino)-3-nitrophenyl)sulfonyl)-4-(2-(2-(2-isopropylphenyl)-4-(3-methoxy-4-((methylamino)methyl)benzyl)piperazin-1-yl)-7-azaspiro[3.5]non-7-yl)benzamide]
